Measurements published in publication PMC3714604 (European journal of medicinal chemistry, 2011).

Tested on: not listed separately
Test: In vitro stability in rat liver S9 fraction with NADPH-regenerating system
Format: in vitro ADME
Conditions: male, Wistar, rat, s9, pH 7.4

Row | Structure (SMILES) | half-life
1 | O=C(NC1Cc2ccccc2C1)Oc1cccc(-c2ccccc2)c1 [Compound 13] | > 60 min
2 | CCCCNC(=O)Oc1cccc(-c2ccccc2)c1 [Compound 5] | < 2 min
3 | CC(C)NC(=O)Oc1cccc(-c2ccccc2)c1 [Compound 4] | < 2 min

Same assay, conditions: rat liver S9, entire testing period

Row | Structure (SMILES) | stability to in vitro liver metabolism
4 | O=C(NC12CC3CC(CC(C3)C1)C2)Oc1cccc(-c2ccccc2)c1 [Compound 10] | remained stable for the entire testing period

Tested on: FAAH
Test: not given
Conditions: rats; ref [24]; cited from earlier work

Row | Structure (SMILES) | ID50, in vivo potency on FAAH inhibition
5 | O=C(NC1CCCCC1)Oc1cccc(-c2ccccc2)c1 [Compound 1] | 0.81 mg/kg
6 | O=C(NCCCCc1ccccc1)Oc1cccc(-c2ccccc2)c1 [Compound 16] | 0.96 mg/kg

Tested on: rat brain membrane FAAH
Test: not given
Conditions: cited from earlier work

Row | Structure (SMILES) | pIC50, inhibitory potency toward FAAH in vitro activity
7 | NC(=O)c1cccc(-c2cccc(OC(=O)NCc3ccc4ccccc4c3)c2)c1 [Compound 19] | 9.20

Same assay, conditions: rat brain membrane FAAH activity; ref [24] and [38]; cited from earlier work

Row | Structure (SMILES) | pIC50, inhibitory potency toward FAAH in vitro activity
8 | O=C(NCc1ccccc1)Oc1cccc(-c2ccccc2)c1 [Compound 11] | 6.86
9 | O=C(NC1CCC1)Oc1cccc(-c2ccccc2)c1 [Compound 7] | 7.27
10 | O=C(NC12CC3CC(CC(C3)C1)C2)Oc1cccc(-c2ccccc2)c1 [Compound 10] | 5.39
11 | O=C(NCC1CCCCC1)Oc1cccc(-c2ccccc2)c1 [Compound 9] | 7.18
12 | O=C(NCCc1ccccc1)Oc1cccc(-c2ccccc2)c1 [Compound 12] | 6.32
13 | O=C(NCCCCCCN1CCOCC1)Oc1cccc(-c2ccccc2)c1 [Compound 18] | 7.40
14 | O=C(NC1CCCCC1)Oc1cccc(-c2ccccc2)c1 [Compound 1] | 7.20
15 | O=C(NCc1ccc2ccccc2c1)Oc1cccc(-c2ccccc2)c1 [Compound 15] | 8.27
16 | O=C(NC1Cc2ccccc2C1)Oc1cccc(-c2ccccc2)c1 [Compound 13] | 6.67
17 | CCCCNC(=O)Oc1cccc(-c2ccccc2)c1 [Compound 5] | 6.95
18 | O=C(NCCCCc1ccccc1)Oc1cccc(-c2ccccc2)c1 [Compound 16] | 8.03
19 | CC(C)NC(=O)Oc1cccc(-c2ccccc2)c1 [Compound 4] | 6.28
20 | CNC(=O)Oc1cccc(-c2ccccc2)c1 [Compound 3] | 4.86
21 | CCCCCCNC(=O)Oc1cccc(-c2ccccc2)c1 [Compound 6] | 7.24
22 | O=C(NC1CCCC1)Oc1cccc(-c2ccccc2)c1 [Compound 8] | 7.47
23 | O=C(NCCCCCCc1ccccc1)Oc1cccc(-c2ccccc2)c1 [Compound 17] | 7.89

Tested on: not listed separately
Test: In vitro chemical stability at alkaline pH
Format: physicochemical
Conditions: 1 μM, 300 nM, 100 nM

Row | Structure (SMILES) | dependence of pseudo half-lives on concentration at pH 9.0
24 | O=C(NC12CC3CC(CC(C3)C1)C2)Oc1cccc(-c2ccccc2)c1 [Compound 10] | No significant difference
25 | O=C(NC1CCCCC1)Oc1cccc(-c2ccccc2)c1 [Compound 1] | No significant difference
26 | O=C(NCCCCc1ccccc1)Oc1cccc(-c2ccccc2)c1 [Compound 16] | No significant difference
